Data set [1] can be described thus: Singlet oxygen quantum yield. In kind it is physicochemical.
The next data set has as its system Jurkat cells. Nature of the data set: Accumulation of free F64PcZn in Jurkat cells. It is filed as cell-based, human. To be noted: free F64PcZn incubated with the cell suspensions. The text has this: If the composite is used also on human skin there is a probability of PS loss by the photoactive foil. In order to protect the human body against undesired phototoxic effects it is important to make sure that the free molecules are not able to enter human cells.
Laser Phys. 13:22-29 b) M. Regehly , K. Greish, F. Rancan, H. Maeda, B. Röder: Water-soluble polymer conjugates of ZnPP for photodynamic therapy, Bioconjugate Chemistry, 18 (2007) 494-499. c) K. Chen, A. Preuβ, S. Hackbarth, M. Wacker, K. Langer, B. Röder: Novel photosensitizer-protein nanoparticles for Photodynamic Therapy: Photophysical characterization and in vitro investigations, J. Photochem. Photobiol.: B, in press May 2009). It is important to mention that phthalocyanines also belong to the class of tetrapyroles and thus the above comparison is meaningful. Thus, incubating the cell suspensions according to the procedure described in a) Paul A, Hackbarth S, Mölich A, Seifert M, Röder B (2003) Comparative Study on the Photosensitization of Jurkat Cells in vitro by Pheophorbide-a and a Pheophorbide-a Diaminobutane polypropylene-imine Dendrimer Complex. Laser Phys. […]

The results in this text go back to patent US20130064712A1, “Composite comprising at least one type of perfluoroalkyl-perfluoro-phthalocyanine” (priority 2009, published 2013).

In the case of “1, 4, 8, 11, 15, 18, 22, 25-octafluoro-2, 3, 9, 10, 16, 17, 23, 24-octa-perfluoro-isopropyl-phthalocyanine [F64PcZn]”, the “singlet oxygen quantum yield” value in data set [1] is given as “around 56%”. In addition, in the data set with Jurkat cells, the “accumulation of the dye inside the cells” value is “undetectable accumulation”.
